# ChEMBL document CHEMBL1139549, “Two prodrugs of potent and selective GluR5 kainate receptor antagonists actives in three animal models of pain” (J Med Chem, 2005)
# Assays:
# [1] = molecular target: Glutamate receptor 2 (Homo sapiens, UniProt P42262); experiment: biochemical
# Description: Inhibition of [3H]-AMPA binding to human GluR2 receptors expressed in HEK 293 cells
# [2] = Inhibition of [3H]KA binding to human iontropic glutamate receptors 5 and 6
# [3] = Inhibition of [3H]KA binding to human iontropic glutamate receptors 5 and KA-2
# [4] = Inhibition of [3H]KA binding to human iontropic glutamate receptors 6 and KA-2
# [5] = molecular target: Glutamate receptor ionotropic, kainate 1 (Homo sapiens, UniProt P39086)
# Description: Inhibition of [3H]-KA binding to iontropic glutamate receptor 5
# [6] = molecular target: Glutamate receptor ionotropic, kainate 2 (Homo sapiens, UniProt Q13002); experiment: Inhibition of [3H]KA binding to iontropic glutamate receptor 6
# Sequence of Glutamate receptor ionotropic, kainate 2 (Q13002 whole entry): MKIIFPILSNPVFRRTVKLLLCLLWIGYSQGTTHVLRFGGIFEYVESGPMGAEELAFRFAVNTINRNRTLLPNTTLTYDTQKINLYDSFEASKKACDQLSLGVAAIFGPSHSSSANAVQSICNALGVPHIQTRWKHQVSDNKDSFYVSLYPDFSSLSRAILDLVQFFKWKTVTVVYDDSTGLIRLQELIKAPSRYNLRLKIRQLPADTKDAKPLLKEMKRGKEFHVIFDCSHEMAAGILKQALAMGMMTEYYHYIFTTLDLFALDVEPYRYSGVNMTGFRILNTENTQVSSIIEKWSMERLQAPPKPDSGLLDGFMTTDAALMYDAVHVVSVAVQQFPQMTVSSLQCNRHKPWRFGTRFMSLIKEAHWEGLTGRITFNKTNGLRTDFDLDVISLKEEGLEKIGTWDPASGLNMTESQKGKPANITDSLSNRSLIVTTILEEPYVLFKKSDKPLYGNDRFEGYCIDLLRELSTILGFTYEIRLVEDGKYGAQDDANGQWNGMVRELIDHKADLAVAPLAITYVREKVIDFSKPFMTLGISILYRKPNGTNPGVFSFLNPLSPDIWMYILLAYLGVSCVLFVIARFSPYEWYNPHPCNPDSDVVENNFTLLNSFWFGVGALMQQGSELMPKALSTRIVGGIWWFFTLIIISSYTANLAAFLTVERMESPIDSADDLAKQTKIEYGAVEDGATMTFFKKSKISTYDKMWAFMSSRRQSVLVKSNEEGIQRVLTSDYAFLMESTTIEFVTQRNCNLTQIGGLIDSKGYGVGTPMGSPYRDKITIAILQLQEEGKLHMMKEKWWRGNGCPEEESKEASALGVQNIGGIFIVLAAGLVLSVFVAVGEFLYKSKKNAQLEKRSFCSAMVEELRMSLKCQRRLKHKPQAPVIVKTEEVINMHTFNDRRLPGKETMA
# Sequence of Glutamate receptor 2 (P42262 whole entry): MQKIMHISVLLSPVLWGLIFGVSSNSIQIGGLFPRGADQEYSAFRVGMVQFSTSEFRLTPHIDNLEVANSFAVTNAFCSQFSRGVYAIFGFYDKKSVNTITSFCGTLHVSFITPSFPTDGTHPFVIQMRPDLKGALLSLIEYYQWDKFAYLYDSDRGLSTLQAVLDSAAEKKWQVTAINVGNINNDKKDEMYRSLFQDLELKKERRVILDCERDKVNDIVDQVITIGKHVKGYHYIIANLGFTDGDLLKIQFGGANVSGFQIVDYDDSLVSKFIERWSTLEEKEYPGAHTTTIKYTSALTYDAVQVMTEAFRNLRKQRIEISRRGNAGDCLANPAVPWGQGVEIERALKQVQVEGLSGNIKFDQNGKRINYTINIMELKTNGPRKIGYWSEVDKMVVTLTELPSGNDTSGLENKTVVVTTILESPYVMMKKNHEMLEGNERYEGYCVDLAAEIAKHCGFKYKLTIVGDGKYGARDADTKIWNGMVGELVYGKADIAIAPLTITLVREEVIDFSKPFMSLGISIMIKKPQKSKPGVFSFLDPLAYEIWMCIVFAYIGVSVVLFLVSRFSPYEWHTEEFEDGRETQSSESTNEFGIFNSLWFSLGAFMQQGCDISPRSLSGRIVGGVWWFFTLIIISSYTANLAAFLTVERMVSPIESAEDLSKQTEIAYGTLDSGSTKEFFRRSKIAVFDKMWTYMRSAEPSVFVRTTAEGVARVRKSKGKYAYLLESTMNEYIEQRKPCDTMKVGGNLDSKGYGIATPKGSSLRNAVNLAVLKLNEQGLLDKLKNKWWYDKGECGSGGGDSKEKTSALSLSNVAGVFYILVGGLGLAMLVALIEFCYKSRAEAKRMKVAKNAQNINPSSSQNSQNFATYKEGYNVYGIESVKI
# Sequence of Glutamate receptor ionotropic, kainate 1 (P39086 whole entry): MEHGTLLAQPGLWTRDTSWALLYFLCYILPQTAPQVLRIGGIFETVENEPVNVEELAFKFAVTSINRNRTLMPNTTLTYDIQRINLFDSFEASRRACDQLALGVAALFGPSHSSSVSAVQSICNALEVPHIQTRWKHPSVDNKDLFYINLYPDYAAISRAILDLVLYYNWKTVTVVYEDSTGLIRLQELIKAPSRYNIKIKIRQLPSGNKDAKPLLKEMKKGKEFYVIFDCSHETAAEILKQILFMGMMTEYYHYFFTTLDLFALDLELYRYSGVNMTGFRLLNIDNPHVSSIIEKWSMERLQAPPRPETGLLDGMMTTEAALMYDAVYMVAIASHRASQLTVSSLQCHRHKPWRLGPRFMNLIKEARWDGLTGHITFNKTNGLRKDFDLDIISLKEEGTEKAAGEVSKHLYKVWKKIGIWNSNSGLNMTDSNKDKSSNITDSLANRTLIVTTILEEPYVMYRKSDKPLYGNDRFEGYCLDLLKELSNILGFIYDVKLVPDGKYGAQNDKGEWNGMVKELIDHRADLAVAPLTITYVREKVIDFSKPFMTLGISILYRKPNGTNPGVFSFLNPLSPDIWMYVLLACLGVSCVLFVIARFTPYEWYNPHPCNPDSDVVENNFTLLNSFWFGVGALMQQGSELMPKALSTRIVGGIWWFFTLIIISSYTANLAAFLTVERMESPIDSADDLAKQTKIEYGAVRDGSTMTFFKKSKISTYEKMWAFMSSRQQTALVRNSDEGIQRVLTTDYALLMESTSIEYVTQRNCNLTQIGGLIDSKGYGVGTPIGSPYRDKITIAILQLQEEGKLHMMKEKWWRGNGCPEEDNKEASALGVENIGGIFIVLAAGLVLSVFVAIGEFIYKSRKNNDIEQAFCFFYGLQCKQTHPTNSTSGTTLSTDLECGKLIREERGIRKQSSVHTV
Structure (SMILES),Ki [1] [µM],Ki [2] [µM],Ki [3] [µM],Ki [4] [µM],Ki [5] [µM],Ki [6] [µM]
CCC(CC)COC(=O)[C@@H]1C[C@H]2C[C@@H](Nc3ccccc3-c3nn[nH]n3)CC[C@H]2CN1,> 100,13.7,> 100,> 100,31.8,> 100
CC(C)COC(=O)[C@@H]1C[C@H]2C[C@@H](Oc3ccccc3-c3nn[nH]n3)CC[C@H]2CN1,> 100,5.98,60.9,> 100,7.37,> 100
O=C(O)[C@@H]1C[C@H]2C[C@@H](Oc3ccccc3-c3nn[nH]n3)CC[C@H]2CN1,8.26,1,7.89,> 100,1.69,> 100
O=C(O)[C@@H]1C[C@H]2C[C@@H](Nc3ccccc3-c3nn[nH]n3)CC[C@H]2CN1,5.51,1.37,9.86,> 100,1.55,> 100
O=C(O)c1ccc(C[C@H]2CC[C@H]3CN[C@H](C(=O)O)C[C@H]3C2)cc1,> 100,10.2,> 100,> 100,,> 100
NS(=O)(=O)c1cccc2c1c([N+](=O)[O-])cc1nc(O)c(O)nc12 [NBQX],,6.12,26.6,0.6,,
O=C(O)[C@@H]1C[C@H]2C[C@@H](CCc3nn[nH]n3)CC[C@H]2CN1 [TEZAMPANEL ANHYDROUS],,2.1,16.2,> 100,4.16,> 100
